Reference: PubChem BioAssay AID192 (DTP/NCI, 2004)
“And” between values parts separate entries of the source, which are not always exact repeats. Equal entries are not always repeated. Toxic doses and inconclusive results are not listed. Rule for the calls: active = survival T/C of 150% or more; inactive = T/C below 125% in these data.

System: BDF1 mice, B16 melanoma ip, median survival T/C
Assay: NCI In Vivo Anticancer Drug Screen. Data for tumor model B16 Melanoma (intraperitoneal) in B6D2F1 (BDF1) mice
Details: endpoint: median survival time, higher = longer survival
Outline: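 Antitumor activity is assessed in mice bearing a transplanted tumor, with survival or tumor size compared against vehicle-dosed controls and expressed as T/C.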

[1] = dose: 12.5 mg/kg/injection, schedule: Q01DX009 (ip), vehicle: saline
[2] = dose: 25.0 mg/kg/injection, schedule: Q01DX009 (ip), vehicle: saline with Tween-80
[3] = dose: 25.0 mg/kg/injection, schedule: Q01DX009 (ip), vehicle: saline
[4] = dose: 25.0 mg/kg/injection, schedule: Q04DX003 (ip), vehicle: saline with Tween-80
[5] = dose: 50.0 mg/kg/injection, schedule: Q01DX009 (ip), vehicle: saline
[6] = dose: 50.0 mg/kg/injection, schedule: Q04DX003 (ip), vehicle: saline with Tween-80
[7] = dose: 50.0 mg/kg/injection, schedule: Q01DX009 (ip), vehicle: Klucel (hydroxypropylcellulose) (HPC)
[8] = dose: 100.0 mg/kg/injection, schedule: Q01DX009 (ip), vehicle: Klucel (hydroxypropylcellulose) (HPC)
[9] = dose: 200.0 mg/kg/injection, schedule: Q01DX009 (ip), vehicle: Klucel (hydroxypropylcellulose) (HPC)
[10] = dose: 400.0 mg/kg/injection, schedule: Q01DX009 (ip), vehicle: Klucel (hydroxypropylcellulose) (HPC)

Measured: T/C

CN(C)/N=N/c1nc[nH]c1C(N)=O
inactive: dose: 6.25 mg/kg/injection, schedule: Q01DX009 (ip), vehicle: saline 110 % of control | dose: 6.25 mg/kg/injection, schedule: Q01DX009 (ip), vehicle: steriod suspending solution 105 % of control | dose: 12.5 mg/kg/injection, schedule: Q01DX009 (ip), vehicle: carboxymethylcellulose (CMC) 121 % of control | [1] 115 % of control | dose: 12.5 mg/kg/injection, schedule: Q01DX009 (ip), vehicle: steriod suspending solution 107 % of control | dose: 13.0 mg/kg/injection, schedule: Q01DX009 (ip), vehicle: saline with Tween-80 114 % of control | dose: 18.75 mg/kg/injection, schedule: Q01DX009 (ip), vehicle: Klucel (hydroxypropylcellulose) (HPC) 101 % of control | dose: 18.8 mg/kg/injection, schedule: Q01DX009 (ip), vehicle: saline 105 % of control | dose: 18.8 mg/kg/injection, schedule: Q04DX005 (ip), vehicle: saline 94 % of control | dose: 25.0 mg/kg/injection, schedule: Q01DX009 (ip), vehicle: carboxymethylcellulose (CMC) 115 % of control | dose: 25.0 mg/kg/injection, schedule: Q01DX009 (ip), vehicle: distilled water + Tween-80 117 % of control | [2] 107 % of control | [3] 102 % of control and 110 % of control and 114 % of control | dose: 25.0 mg/kg/injection, schedule: Q01DX009 (ip), vehicle: steriod suspending solution 115 % of control | dose: 25.0 mg/kg/injection, schedule: Q01DX017 (ip), vehicle: saline 116 % of control | [4] 104 % of control and 105 % of control and 115 % of control | dose: 27.5 mg/kg/injection, schedule: Q01DX009 (ip), vehicle: saline 100 % of control | dose: 37.0 mg/kg/injection, schedule: Q01DX009 (ip), vehicle: saline with Tween-80 112 % of control | dose: 37.5 mg/kg/injection, schedule: Q04DX003 (ip), vehicle: saline 100 % of control | dose: 37.5 mg/kg/injection, schedule: Q04DX005 (ip), vehicle: saline 97 % of control | dose: 48.0 mg/kg/injection, schedule: Q01DX005 (ip), vehicle: Klucel (hydroxypropylcellulose) (HPC) 99 % of control | dose: 50.0 mg/kg/injection, schedule: Q01DX009 (ip), vehicle: carboxymethylcellulose (CMC) 110 % of control | dose: 50.0 mg/kg/injection, schedule: Q01DX009 (ip), vehicle: saline with Tween-80 124 % of control | [5] 105 % of control and 114 % of control and 121 % of control | dose: 50.0 mg/kg/injection, schedule: Q01DX009 (ip), vehicle: steriod suspending solution 115 % of control | dose: 50.0 mg/kg/injection, schedule: Q01DX017 (ip), vehicle: saline 114 % of control | [6] 115 % of control | dose: 72.0 mg/kg/injection, schedule: Q01DX005 (ip), vehicle: Klucel (hydroxypropylcellulose) (HPC) 101 % of control | dose: 75.0 mg/kg/injection, schedule: Q01DX001 (ip), vehicle: saline 114 % of control | dose: 75.0 mg/kg/injection, schedule: Q04DX003 (ip), vehicle: saline 107 % of control | dose: 75.0 mg/kg/injection, schedule: Q04DX005 (ip), vehicle: saline 107 % of control | dose: 100.0 mg/kg/injection, schedule: Q01DX009 (ip), vehicle: carboxymethylcellulose (CMC) 105 % of control | dose: 100.0 mg/kg/injection, schedule: Q01DX009 (ip), vehicle: distilled water + Tween-80 124 % of control | dose: 100.0 mg/kg/injection, schedule: Q01DX009 (ip), vehicle: saline with Tween-80 123 % of control | dose: 100.0 mg/kg/injection, schedule: Q01DX009 (ip), vehicle: saline 110 % of control (2×) and 119 % of control | dose: 100.0 mg/kg/injection, schedule: Q01DX009 (ip), vehicle: steriod suspending solution 115 % of control | dose: 100.0 mg/kg/injection, schedule: Q01DX017 (ip), vehicle: saline 123 % of control | dose: 108.0 mg/kg/injection, schedule: Q01DX005 (ip), vehicle: Klucel (hydroxypropylcellulose) (HPC) 98 % of control | dose: 130.0 mg/kg/injection, schedule: Q01DX009 (ip), vehicle: DMSO 105 % of control | dose: 148.0 mg/kg/injection, schedule: Q04DX003 (ip), vehicle: saline with Tween-80 110 % of control | dose: 150.0 mg/kg/injection, schedule: Q01DX001 (ip), vehicle: saline 112 % of control | dose: 150.0 mg/kg/injection, schedule: Q04DX003 (ip), vehicle: saline 112 % of control | dose: 160.0 mg/kg/injection, schedule: Q01DX005 (ip), vehicle: Klucel (hydroxypropylcellulose) (HPC) 101 % of control | dose: 166.7 mg/kg/injection, schedule: Q01DX009 (ip), vehicle: saline with Tween-80 77 % of control | dose: 200.0 mg/kg/injection, schedule: Q01DX009 (ip), vehicle: distilled water + Tween-80 121 % of control | dose: 200.0 mg/kg/injection, schedule: Q01DX009 (ip), vehicle: saline 117 % of control and 118 % of control | dose: 200.0 mg/kg/injection, schedule: Q04DX003 (ip), vehicle: saline with Tween-80 109 % of control | dose: 216.0 mg/kg/injection, schedule: Q01DX009 (ip), vehicle: DMSO 109 % of control | dose: 222.0 mg/kg/injection, schedule: Q04DX003 (ip), vehicle: saline with Tween-80 115 % of control | dose: 240.0 mg/kg/injection, schedule: Q01DX005 (ip), vehicle: Klucel (hydroxypropylcellulose) (HPC) 99 % of control | dose: 277.8 mg/kg/injection, schedule: Q01DX009 (ip), vehicle: saline with Tween-80 53 % of control | dose: 300.0 mg/kg/injection, schedule: Q01DX001 (ip), vehicle: saline 102 % of control | dose: 300.0 mg/kg/injection, schedule: Q04DX003 (ip), vehicle: saline 114 % of control | dose: 300.0 mg/kg/injection, schedule: Q04DX005 (ip), vehicle: saline 115 % of control | dose: 333.0 mg/kg/injection, schedule: Q04DX003 (ip), vehicle: saline with Tween-80 124 % of control | dose: 500.0 mg/kg/injection, schedule: Q04DX003 (ip), vehicle: saline with Tween-80 114 % of control | dose: 600.0 mg/kg/injection, schedule: Q01DX001 (ip), vehicle: saline 107 % of control | dose: 600.0 mg/kg/injection, schedule: Q04DX003 (ip), vehicle: saline 95 % of control | dose: 750.0 mg/kg/injection, schedule: Q04DX003 (ip), vehicle: saline with Tween-80 124 % of control | dose: 800.0 mg/kg/injection, schedule: Q04DX003 (ip), vehicle: saline with Tween-80 45 % of control | dose: 1200.0 mg/kg/injection, schedule: Q01DX001 (ip), vehicle: saline 117 % of control

NC(=O)OCCCc1ccccc1
inactive: dose: 12.5 mg/kg/injection, schedule: Q01DX009 (ip), vehicle: Klucel (hydroxypropylcellulose) (HPC) 100 % of control | dose: 25.0 mg/kg/injection, schedule: Q01DX009 (ip), vehicle: Klucel (hydroxypropylcellulose) (HPC) 94 % of control | [7] 100 % of control | [8] 107 % of control

Cc1ccc(S(=O)(=O)N2CCn3ncc(C#N)c32)cc1
inactive: [7] 100 % of control | [8] 103 % of control | [9] 103 % of control | [10] 96 % of control

CCCCCCCCCCCCCCOC(=O)Cl
inactive: [7] 90 % of control | [8] 92 % of control | [9] 96 % of control | [10] 91 % of control

O=C(O)c1c(Cl)cccc1Cl
inactive: dose: 12.5 mg/kg/injection, schedule: Q01DX009 (ip), vehicle: saline with Tween-80 105 % of control | [2] 95 % of control | [4] 105 % of control | [6] 97 % of control

NNc1ncnc2nc[nH]c12
inactive: [1] 108 % of control | [3] 120 % of control | [5] 100 % of control

CN(C)N=Nc1ccnc2c(Br)cccc12
inactive: dose: 14.4 mg/kg/injection, schedule: Q01DX009 (ip), vehicle: DMSO 90 % of control | dose: 24.0 mg/kg/injection, schedule: Q01DX009 (ip), vehicle: DMSO 97 % of control | dose: 40.0 mg/kg/injection, schedule: Q01DX009 (ip), vehicle: DMSO 90 % of control | dose: 66.7 mg/kg/injection, schedule: Q01DX009 (ip), vehicle: DMSO 101 % of control
